Assay results as given in US20080221330A1, “Mutilin-Derivative Substituted at Position 12” (priority 2004, published 2008).
Where a name gives a salt, the structure may show the parent alone.

Experiments:
S. aureus 209P = assay: Minimum inhibitory concentration (MIC) by NCCLS agar dilution technique; assay type: cell-based
Protocol: (§1) The minimum inhibitory concentration (MIC) was determined for each compound by NCCLS agar dilution technique (Methods for dilution antimicrobial susceptibility tests for bacteria that grow aerobically; approved standard-sixth edition. […] The results are shown in Table below and indicate that the compounds of the present invention have high antimicrobial activity.

S. pneumoniae IID 553 = assay: as above; assay type: cell-based
Protocol: as §1

C=CCC1(C)CC(OC(=O)NC(=O)C2CN3CCC2C3)C2(C)C(C)CCC3(CCC(=O)C32)C(C)C1O.Cl [Example 4, 14-{(3R,4S)-1-azabicyclo[2.2.1]heptane-3-carbonyl}carbamoyl-12-desethenyl-12-(1-propene-3-yl)mutilin hydrochloride]
minimum inhibitory concentration (MIC), in vitro antimicrobial activity (S. aureus 209P): 0.125 | minimum inhibitory concentration (MIC), in vitro antimicrobial activity (S. pneumoniae IID 553): 0.5

C=C[C@]1(C)C[C@@H](OC(=O)CSCCN(CC)CC)[C@]2(C)[C@H](C)CC[C@]3(CCC(=O)[C@H]32)[C@@H](C)[C@@H]1O [tiamulin, reference compound]
minimum inhibitory concentration (MIC), in vitro antimicrobial activity (S. aureus 209P): 0.06-0.125 | minimum inhibitory concentration (MIC), in vitro antimicrobial activity (S. pneumoniae IID 553): 1-2

CCC[C@]1(C)C[C@@H](OC(=O)NC(=O)[C@H]2CN3CC[C@@H]2C3)[C@@]2(C)C3C(=O)CCC3(CC[C@H]2C)[C@@H](C)[C@@H]1O (stereo partly drawn) [Example 17, 14-{(3R,4S)-1-azabicyclo[2.2.1]heptane-3-carbonyl}carbamoyl-12-desethenyl-12-propylmutilin hydrochloride]
minimum inhibitory concentration (MIC), in vitro antimicrobial activity (S. aureus 209P): 0.125 | minimum inhibitory concentration (MIC), in vitro antimicrobial activity (S. pneumoniae IID 553): 2

CC1C(O)C(C)(C)CC(OC(=O)NC(=O)C2CN3CCC2C3)C2(C)C(C)CCC13CCC(=O)C32.Cl [Example 2, 14-{(3R,4S)-1-azabicyclo[2.2.1]heptane-3-carbonyl}carbamoyl-12-desethenyl-12-methylmutilin hydrochloride]
minimum inhibitory concentration (MIC), in vitro antimicrobial activity (S. aureus 209P): 0.125 | minimum inhibitory concentration (MIC), in vitro antimicrobial activity (S. pneumoniae IID 553): 1

C/C=C/C[C@]1(C)C[C@@H](OC(=O)NC(=O)[C@H]2CN3CC[C@@H]2C3)[C@@]2(C)C3C(=O)CCC3(CC[C@H]2C)[C@@H](C)[C@@H]1O (stereo partly drawn) [Example 20, 14-{(3R,4S)-1-azabicyclo[2.2.1]heptane-3-carbonyl}carbamoyl-12-[(E)-2-butene-4-yl]-12-desethenylmutilin]
minimum inhibitory concentration (MIC), in vitro antimicrobial activity (S. aureus 209P): 0.06 | minimum inhibitory concentration (MIC), in vitro antimicrobial activity (S. pneumoniae IID 553): 0.5

CCCC[C@]1(C)C[C@@H](OC(=O)NC(=O)[C@H]2CN3CC[C@@H]2C3)[C@@]2(C)C3C(=O)CCC3(CC[C@H]2C)[C@@H](C)[C@@H]1O (stereo partly drawn) [Example 18, 12-butyl-14-{(3R,4S)-1-azabicyclo[2.2.1]heptane-3-carbonyl}car bamoyl-12-desethenylmutilin]
minimum inhibitory concentration (MIC), in vitro antimicrobial activity (S. aureus 209P): 0.125 | minimum inhibitory concentration (MIC), in vitro antimicrobial activity (S. pneumoniae IID 553): 2
